Experimental data as given in ChEMBL document CHEMBL3045929, “Design, synthesis, and evaluation of novel indomethacinantioxidant codrugs as gastrosparing NSAIDs” (2012).

Legend:
Rattus norvegicus [1] = experiment: Anti-inflammatory activity in Rattus norvegicus Sprague-Dawley (rat) assessed as increase in carrageenan-induced paw edema at 16.5 mg/kg, po measured at 4 hr by plethysmometer (reference value: 81.58 +/- 0.63 %); format: functional
Rattus norvegicus [2] = experiment: Anti-inflammatory activity in Rattus norvegicus Sprague-Dawley (rat) assessed as increase in carrageenan-induced paw edema at 16.5 mg/kg, po measured at 2 hr by plethysmometer (reference value: 64.73 +/- 0.72 %); format: functional
Rattus norvegicus [3] = experiment: Antiulcerogenic activity in fasted Rattus norvegicus Sprague-Dawley (rat) stomach assessed as ulcer index at 66 mg/kg, po after 8 hr (reference value: 0.23 +/- 0.09); format: functional
Mus musculus [4] = experiment: Analgesic activity in Mus musculus (mouse) assessed as inhibition of acetic acid-induced abdominal writhing at 13.75 mg/kg, po measured for 20 min relative to vehicle-treated control; settings: Abdomen
Rattus norvegicus [5] = experiment: Anti-inflammatory activity in Rattus norvegicus Sprague-Dawley (rat) assessed as increase in carrageenan-induced paw edema at 12 mg/kg, po measured at 4 hr by plethysmometer (reference value: 81.58 +/- 0.63 %); format: functional
Rattus norvegicus [6] = experiment: Anti-inflammatory activity in Rattus norvegicus Sprague-Dawley (rat) assessed as increase in carrageenan-induced paw edema at 12 mg/kg, po measured at 2 hr by plethysmometer (reference value: 64.73 +/- 0.72 %); format: functional
Rattus norvegicus [7] = experiment: Antiulcerogenic activity in fasted Rattus norvegicus Sprague-Dawley (rat) stomach assessed as ulcer index at 48 mg/kg, po after 8 hr (reference value: 0.23 +/- 0.09); format: functional
Mus musculus [8] = experiment: Analgesic activity in Mus musculus (mouse) assessed as inhibition of acetic acid-induced abdominal writhing at 10 mg/kg, po measured for 20 min relative to vehicle-treated control; settings: Abdomen
Rattus norvegicus [9] = experiment: Anti-inflammatory activity in Rattus norvegicus Sprague-Dawley (rat) assessed as increase in carrageenan-induced paw edema at 16.8 mg/kg, po measured at 4 hr by plethysmometer (reference value: 81.58 +/- 0.63 %); format: functional
Rattus norvegicus [10] = experiment: Anti-inflammatory activity in Rattus norvegicus Sprague-Dawley (rat) assessed as increase in carrageenan-induced paw edema at 16.8 mg/kg, po measured at 2 hr by plethysmometer (reference value: 64.73 +/- 0.72 %); format: functional
Rattus norvegicus [11] = experiment: Antiulcerogenic activity in fasted Rattus norvegicus Sprague-Dawley (rat) stomach assessed as ulcer index at 64.1 mg/kg, po after 8 hr (reference value: 0.23 +/- 0.09); format: functional
Mus musculus [12] = experiment: Analgesic activity in Mus musculus (mouse) assessed as inhibition of acetic acid-induced abdominal writhing at 13.35 mg/kg, po measured for 20 min relative to vehicle-treated control; settings: Abdomen
Rattus norvegicus [13] = experiment: Anti-inflammatory activity in Rattus norvegicus Sprague-Dawley (rat) assessed as increase in carrageenan-induced paw edema at 16.4 mg/kg, po measured at 4 hr by plethysmometer (reference value: 81.58 +/- 0.63 %); format: functional
Rattus norvegicus [14] = experiment: Anti-inflammatory activity in Rattus norvegicus Sprague-Dawley (rat) assessed as increase in carrageenan-induced paw edema at 16.4 mg/kg, po measured at 2 hr by plethysmometer (reference value: 64.73 +/- 0.72 %); format: functional
Rattus norvegicus [15] = experiment: Antiulcerogenic activity in fasted Rattus norvegicus Sprague-Dawley (rat) stomach assessed as ulcer index at 65.7 mg/kg, po after 8 hr (reference value: 0.23 +/- 0.09); format: functional
Mus musculus [16] = experiment: Analgesic activity in Mus musculus (mouse) assessed as inhibition of acetic acid-induced abdominal writhing at 13.69 mg/kg, po measured for 20 min relative to vehicle-treated control; settings: Abdomen
Rattus norvegicus [17] = experiment: Anti-inflammatory activity in Rattus norvegicus Sprague-Dawley (rat) assessed as increase in carrageenan-induced paw edema at 16.9 mg/kg, po measured at 4 hr by plethysmometer (reference value: 81.58 +/- 0.63 %); format: functional
Rattus norvegicus [18] = experiment: Anti-inflammatory activity in Rattus norvegicus Sprague-Dawley (rat) assessed as increase in carrageenan-induced paw edema at 16.9 mg/kg, po measured at 2 hr by plethysmometer (reference value: 64.73 +/- 0.72 %); format: functional
Rattus norvegicus [19] = experiment: Antiulcerogenic activity in fasted Rattus norvegicus Sprague-Dawley (rat) stomach assessed as ulcer index at 67.6 mg/kg, po after 8 hr (reference value: 0.23 +/- 0.09); format: functional
Mus musculus [20] = experiment: Analgesic activity in Mus musculus (mouse) assessed as inhibition of acetic acid-induced abdominal writhing at 14.08 mg/kg, po measured for 20 min relative to vehicle-treated control; settings: Abdomen
Rattus norvegicus [21] = experiment: Anti-inflammatory activity in Rattus norvegicus Sprague-Dawley (rat) assessed as increase in carrageenan-induced paw edema at 16 mg/kg, po measured at 4 hr by plethysmometer (reference value: 81.58 +/- 0.63 %); format: functional
Rattus norvegicus [22] = experiment: Anti-inflammatory activity in Rattus norvegicus Sprague-Dawley (rat) assessed as increase in carrageenan-induced paw edema at 16 mg/kg, po measured at 2 hr by plethysmometer (reference value: 64.73 +/- 0.72 %); format: functional
Rattus norvegicus [23] = experiment: Antiulcerogenic activity in fasted Rattus norvegicus Sprague-Dawley (rat) stomach assessed as ulcer index at 67.1 mg/kg, po after 8 hr (reference value: 0.23 +/- 0.09); format: functional
Mus musculus [24] = experiment: Analgesic activity in Mus musculus (mouse) assessed as inhibition of acetic acid-induced abdominal writhing at 13.96 mg/kg, po measured for 20 min relative to vehicle-treated control; settings: Abdomen
Rattus norvegicus [25] = experiment: Anti-inflammatory activity in Rattus norvegicus Sprague-Dawley (rat) assessed as increase in carrageenan-induced paw edema at 15.6 mg/kg, po measured at 4 hr by plethysmometer (reference value: 81.58 +/- 0.63 %); format: functional
Rattus norvegicus [26] = experiment: Anti-inflammatory activity in Rattus norvegicus Sprague-Dawley (rat) assessed as increase in carrageenan-induced paw edema at 15.6 mg/kg, po measured at 2 hr by plethysmometer (reference value: 64.73 +/- 0.72 %); format: functional
Rattus norvegicus [27] = experiment: Antiulcerogenic activity in fasted Rattus norvegicus Sprague-Dawley (rat) stomach assessed as ulcer index at 62.2 mg/kg, po after 8 hr (reference value: 0.23 +/- 0.09); format: functional
Mus musculus [28] = experiment: Analgesic activity in Mus musculus (mouse) assessed as inhibition of acetic acid-induced abdominal writhing at 12.9 mg/kg, po measured for 20 min relative to vehicle-treated control; settings: Abdomen
Rattus norvegicus [29] = experiment: Anti-inflammatory activity in Rattus norvegicus Sprague-Dawley (rat) assessed as increase in carrageenan-induced paw edema at 16.6 mg/kg, po measured at 2 hr by plethysmometer (reference value: 64.73 +/- 0.72 %); format: functional
Rattus norvegicus [30] = experiment: Anti-inflammatory activity in Rattus norvegicus Sprague-Dawley (rat) assessed as increase in carrageenan-induced paw edema at 16.6 mg/kg, po measured at 4 hr by plethysmometer (reference value: 81.58 +/- 0.63 %); format: functional
Rattus norvegicus [31] = experiment: Antiulcerogenic activity in fasted Rattus norvegicus Sprague-Dawley (rat) stomach assessed as ulcer index at 66.5 mg/kg, po after 8 hr (reference value: 0.23 +/- 0.09); format: functional
Mus musculus [32] = experiment: Analgesic activity in Mus musculus (mouse) assessed as inhibition of acetic acid-induced abdominal writhing at 13.9 mg/kg, po measured for 20 min relative to vehicle-treated control; settings: Abdomen

In the case of COc1ccc2c(c1)c(CC(=O)Oc1ccc(C=O)cc1OC)c(C)n2C(=O)c1ccc(Cl)cc1, the Activity (Rattus norvegicus [1]) is reported as 49.87%, the Activity (Rattus norvegicus [2]) is reported as 47.13% and the UI (Rattus norvegicus [3]) is reported as 1.23. For the same compound, the inhibition in vivo at 13.75 mg/kg (Mus musculus [4]) was 81.5%.

With COc1ccc2c(c1)c(CC(=O)O)c(C)n2C(=O)c1ccc(Cl)cc1 [INDOMETHACIN] the Activity (Rattus norvegicus [5]) was 57.39%, the Activity (Rattus norvegicus [6]) was 48.35% and the UI (Rattus norvegicus [7]) was 5.54. For the same compound, the inhibition in vivo at 10 mg/kg (Mus musculus [8]) was 74.9%.

Compound COc1ccc2c(c1)c(CC(=O)Oc1ccc3ccc(=O)oc3c1)c(C)n2C(=O)c1ccc(Cl)cc1 has an Activity (Rattus norvegicus [9]) of 50.27%, an Activity (Rattus norvegicus [10]) of 48.06% and a UI (Rattus norvegicus [11]) of 1.28. The inhibition in vivo at 13.35 mg/kg (Mus musculus [12]) was 75.2%.

Work on COc1ccc2c(c1)c(CC(=O)Oc1cc(C)ccc1C(C)C)c(C)n2C(=O)c1ccc(Cl)cc1 yielded an Activity (Rattus norvegicus [13]) of 54.61%, an Activity (Rattus norvegicus [14]) of 50.25% and a UI (Rattus norvegicus [15]) of 1.37. For the same compound, the inhibition in vivo at 13.69 mg/kg (Mus musculus [16]) was 73.2%.

C=CCc1ccc(OC(=O)Cc2c(C)n(C(=O)c3ccc(Cl)cc3)c3ccc(OC)cc23)c(OC)c1 showed an Activity (Rattus norvegicus [17]) of 45.39%, an Activity (Rattus norvegicus [18]) of 44.33% and a UI (Rattus norvegicus [19]) of 0.93. For the same compound, the inhibition in vivo at 14.08 mg/kg (Mus musculus [20]) was 84.8%.

COc1ccc2c(c1)c(CC(=O)Oc1ccc3c(c1)OCO3)c(C)n2C(=O)c1ccc(Cl)cc1 was tested, and the Activity (Rattus norvegicus [21]) was 44.52%, the Activity (Rattus norvegicus [22]) was 43.17% and the UI (Rattus norvegicus [23]) was 0.79. For the same compound, the inhibition in vivo at 13.96 mg/kg (Mus musculus [24]) was 86%.

In the case of COc1ccc2c(c1)c(CC(=O)Oc1ccccc1OC)c(C)n2C(=O)c1ccc(Cl)cc1, the Activity (Rattus norvegicus [25]) is reported as 48.21%, the Activity (Rattus norvegicus [26]) is reported as 46.89% and the UI (Rattus norvegicus [27]) is reported as 1.15. The inhibition in vivo at 12.9 mg/kg (Mus musculus [28]) was 78.7%.

With COc1ccc2c(c1)c(CC(=O)O[C@@H]1C[C@H](C)CC[C@H]1C(C)C)c(C)n2C(=O)c1ccc(Cl)cc1 the Activity (Rattus norvegicus [29]) was 52.01%, the Activity (Rattus norvegicus [30]) was 55.54% and the UI (Rattus norvegicus [31]) was 1.41. The inhibition in vivo at 13.9 mg/kg (Mus musculus [32]) was 73.9%.
